In test [1] the test system is autistic children. The note with it: 10 subjects, 50 mg TTFD twice a day, rectal suppository, two months.
Method: In a pilot study, ten autistic children, eight boys and two girls, were administered 50 mg of TTFD twice a day through a rectal suppository for a two-month trial period. All the patients were previously diagnosed with autism as defined by those in the field. Parents were asked to fill in a symptom check form to assess the symptoms of the autistic children by giving a numerical score as to severity.
Both forms are scored by computer and were designed by the Autism Research Institute specifically for research of this spectrum of disease. The first form, Form E2, is a diagnostic tool that allocates points on a symptomatic basis. The higher the score, the closer the patient comes to being considered a classic case of autism. The common form of autism that is occurring within the pilot test group seldom reaches the score that indicates classic autism, defined as the inability of a person to relate themself in the ordinary way to people and situations from the beginning of life.
The second form, the ATEC (Autism Treatment Evaluation Checklist) form, also allocates points on a symptomatic basis. […] In addition to completing the forms based on patient behavior, physiological changes were also measured.
Clinical improvement, as shown by the bars, is obtained by subtracting the final ATEC score from that calculated at the outset of the study.
Test [2] concerns children with autism. Conditions: a few children with autism. The text has this: A few children with autism have been exposed to a dermal preparation since the study has been completed.

The values below come from patent US6585996B1, “Lipid-soluble thiamine derivatives in the treatment of autism” (Westlake Laboratories, Inc., priority 2002, dated 2003).

Turning to `CC(=C(CCO)SSCC1CCCO1)N(C=O)Cc1cnc(C)nc1N` (stereo in doubt) [TTFD, thiamine tetrahydrofurfuryl disulfide], the “Clinical results of oral versus rectal administration” value is “does not appear to give as striking clinical results as rectal administration”. In addition, the “Subjects showing clinical improvement in their autistic disorder” value in test [1] is “Eight of the 10”. In addition, the “Clinical condition with dermal preparation” value in test [2] is listed as “immediate improvement in the child's condition was noted”.
